# Experimental data reported in patent US20210308089A1, “METHODS OF TREATING AND/OR PREVENTING VIRAL INFECTIONS AND/OR DISEASES CAUSED BY VIRUSES IN A SUBJECT IN NEED THEREOF” (priority 2020, published 2021).
# Where two headings read alike, the source gives them in different places.
# Tested on: patients of the REDUCE-IT and earlier EPA placebo-controlled trials
# Format: in vivo, human
# Conditions: for Placebo-Adjusted % Change / ARR / NNT / Risk Ratio (95% CI): R-I
# [1] = Hematocrit shift: normal to high (Day 120)
# [2] = Hematocrit shift: normal to high (Day 360)
# [3] = Hematocrit shift: normal to high (Day 720)
# [4] = Hematocrit shift: normal to high (Day 1080)
# [5] = Hematocrit shift: normal to high (Day 1440)
# [6] = Hematocrit shift: normal to high (Day 1800)
# [7] = Hematocrit shift: normal to low (Day 120)
# [8] = Hematocrit shift: normal to low (Day 360)
# [9] = Hematocrit shift: normal to low (Day 720)
# [10] = Hematocrit shift: normal to low (Day 1080)
# [11] = Hematocrit shift: normal to low (Day 1440)
# [12] = Hematocrit shift: normal to low (Day 1800)
# [13] = Hemoglobin shift: normal to high (Day 120)
# [14] = Hemoglobin shift: normal to high (Day 360)
# [15] = Hemoglobin shift: normal to high (Day 720)
# [16] = Hemoglobin shift: normal to high (Day 1080)
# [17] = Hemoglobin shift: normal to high (Day 1440)
# [18] = Hemoglobin shift: normal to high (Day 1800)
# [19] = Hemoglobin shift: normal to low (Day 120)
# [20] = Hemoglobin shift: normal to low (Day 360)
# [21] = Hemoglobin shift: normal to low (Day 720)
# [22] = Hemoglobin shift: normal to low (Day 1080)
# [23] = Hemoglobin shift: normal to low (Day 1440)
# [24] = Hemoglobin shift: normal to low (Day 1800)
structure (smiles),measurement,setting,value
"CC/C=C\C/C=C\C/C=C\C/C=C\C/C=C\CCCC(=O)OCC [icosapent ethyl, eicosapentaenoic acid ethyl ester]",Placebo-Adjusted % Change,Hematocrit (Day 360),+.78%
same,Placebo-Adjusted % Change,Hematocrit (Day 720),+1.28%
same,Placebo-Adjusted % Change,Hematocrit (Day 1080),+1.59%
same,Placebo-Adjusted % Change,Hematocrit (Day 1440),+1.86%
same,ARR,[1],0.4%
same,NNT,[1],−234
same,Risk Ratio (95% CI),[1],1.507 (0.952 to 2.386) −2
same,ARR,[2],0.3%
same,NNT,[2],−364
same,Risk Ratio (95% CI),[2],1.273 (0.811 to 1.999) −2
same,ARR,[3],0.2%
same,NNT,[3],−566
same,Risk Ratio (95% CI),[3],1.181 (0.724 to 1.927) −1
same,ARR,[4],0.4%
same,NNT,[4],−282
same,Risk Ratio (95% CI),[4],1.433 (0.826 to 2.487) −2
same,ARR,[5],0.7%
same,NNT,[5],−138
same,Risk Ratio (95% CI),[5],2.208 (1.155 to 4.221) −3
same,ARR,[6],0.3%
same,NNT,[6],−354
same,Risk Ratio (95% CI),[6],1.420 (0.582 to 3.462) −2
same,ARR,[7],−0.4%
same,NNT,[7],228
same,Risk Ratio (95% CI),[7],0.828 (0.612 to 1.120) 1
same,ARR,[8],−0.6%
same,NNT,[8],158
same,Risk Ratio (95% CI),[8],0.784 (0.583 to 1.054) 2
same,ARR,[9],−1.1%
same,NNT,[9],90
same,Risk Ratio (95% CI),[9],0.747 (0.579 to 0.964) 2
same,ARR,[10],−2.2%
same,NNT,[10],45
same,Risk Ratio (95% CI),[10],0.607 (0.469 to 0.785) 2
same,ARR,[11],−2.1%
same,NNT,[11],47
same,Risk Ratio (95% CI),[11],0.650 (0.500 to 0.845) 2
same,ARR,[12],−0.9%
same,NNT,[12],111
same,Risk Ratio (95% CI),[12],0.859 (0.627 to 1.179) 1
same,Placebo-Adjusted % Change,Hemoglobin (Day 120),+.53%
same,Placebo-Adjusted % Change,Hemoglobin (Day 360),+1%
same,Placebo-Adjusted % Change,Hemoglobin (Day 720),+1.51%
same,Placebo-Adjusted % Change,Hemoglobin (Day 1080),+2.09%
same,Placebo-Adjusted % Change,Hemoglobin (Day 1440),+2.36%
same,ARR,[13],0.3%
same,NNT,[13],−313
same,Risk Ratio (95% CI),[13],1.668 (0.915 to 3.042) −2
same,ARR,[14],−0.1%
same,NNT,[14],961
same,Risk Ratio (95% CI),[14],0.908 (0.571 to 1.442) 1
same,ARR,[15],0.2%
same,NNT,[15],−491
same,Risk Ratio (95% CI),[15],1.144 (0.760 to 1.721) −1
same,ARR,[16],1.0%
same,NNT,[16],−103
same,Risk Ratio (95% CI),[16],2.241 (1.330 to 3.778) −3
same,ARR,[17],0.7%
same,NNT,[17],−145
same,Risk Ratio (95% CI),[17],1.829 (1.036 to 3.229) −3
same,ARR,[18],0.4%
same,NNT,[18],−240
same,Risk Ratio (95% CI),[18],1.383 (0.686 to 2.788) −2
same,ARR,[19],0.0%
same,NNT,[19],−2370
same,Risk Ratio (95% CI),[19],1.013 (0.787 to 1.303) −1
same,ARR,[20],−0.7%
same,NNT,[20],134
same,Risk Ratio (95% CI),[20],0.828 (0.652 to 1.051) 1
same,ARR,[21],−1.1%
same,NNT,[21],93
same,Risk Ratio (95% CI),[21],0.815 (0.657 to 1.011) 1
same,ARR,[22],−2.3%
same,NNT,[22],44
same,Risk Ratio (95% CI),[22],0.703 (0.570 to 0.868) 2
same,ARR,[23],−2.7%
same,NNT,[23],37
same,Risk Ratio (95% CI),[23],0.685 (0.553 to 0.849) 2
same,ARR,[24],−1.5%
same,NNT,[24],67
same,Risk Ratio (95% CI),[24],0.827 (0.630 to 1.085) 1
same,ARR,Lymphocytes: PCS High >45%,2.7%
same,NNT,Lymphocytes: PCS High >45%,−38
same,Risk Ratio (95% CI),Lymphocytes: PCS High >45%,1.543 (1.296 to 1.838) −2
same,ARR,Lymphocytes: PCS Low <30%,−6.3%
same,NNT,Lymphocytes: PCS Low <30%,16
same,Risk Ratio (95% CI),Lymphocytes: PCS Low <30%,0.924 (0.904 to 0.945) 1
same,Placebo-Adjusted % Change,Neutrophils (Day 120),+1.11%
same,Placebo-Adjusted % Change,Neutrophils (Day 360),−3%
same,Placebo-Adjusted % Change,Neutrophils (Day 720),−4.7%
same,Placebo-Adjusted % Change,Neutrophils (Day 1080),−4.52%
same,Placebo-Adjusted % Change,Neutrophils (Day 1440),−3.06%
same,Placebo-Adjusted % Change,Neutrophils/Leukocytes (Ratio) (Day 120),−2.06%
same,Placebo-Adjusted % Change,Neutrophils/Leukocytes (Ratio) (Day 360),−3.87%
same,Placebo-Adjusted % Change,Neutrophils/Leukocytes (Ratio) (Day 720),−4.61%
same,Placebo-Adjusted % Change,Neutrophils/Leukocytes (Ratio) (Day 1080),−4.21%
same,Placebo-Adjusted % Change,Neutrophils/Leukocytes (Ratio) (Day 1440),−4.1%
same,AR: ALP >2x ULN (AE table),"human, in vivo",0.6%
same,AR: ALP > ULN (AE table),"human, in vivo",9.8%
same,AR: Blood uric acid increased (AE table),"human, in vivo",1.0%
same,AR: Gout (AE table),"human, in vivo",3.6%
same,AR: Hepatomegaly (AE table),"human, in vivo",0.4%
same,AR: Hyperuricemia (AE table),"human, in vivo",0.6%
same,AR: Spleen disorders (AE table),"human, in vivo",0.3%
same,AR: Splenomegaly (AE table),"human, in vivo",0.2%
same,ARR: ALP >2x ULN (AE table),"human, in vivo",−0.3%
same,ARR: ALP > ULN (AE table),"human, in vivo",−4.5%
same,ARR: Blood uric acid increased (AE table),"human, in vivo",0.1%
same,ARR: Gout (AE table),"human, in vivo",1.1%
same,ARR: Hepatomegaly (AE table),"human, in vivo",−0.4%
same,ARR: Hyperuricemia (AE table),"human, in vivo",0.3%
same,ARR: Spleen disorders (AE table),"human, in vivo",−0.3%
same,ARR: Splenomegaly (AE table),"human, in vivo",−0.1%
same,Lab Reported Events: % of subjects,"human, in vivo",(79.9) %
same,Lab Reported Events: number of subjects,"human, in vivo",3269
same,NNT: ALP >2x ULN (AE table),"human, in vivo",341
same,NNT: ALP > ULN (AE table),"human, in vivo",22
same,NNT: Blood uric acid increased (AE table),"human, in vivo",−680
same,NNT: Gout (AE table),"human, in vivo",−93
same,NNT: Hepatomegaly (AE table),"human, in vivo",256
same,NNT: Hyperuricemia (AE table),"human, in vivo",−292
same,NNT: Spleen disorders (AE table),"human, in vivo",372
same,NNT: Splenomegaly (AE table),"human, in vivo",682
same,Platelet Count: PCS High >500 × 10^3/uL,"human, in vivo",16 (0.4%) n(%)
same,Platelet Count: PCS High >500 × 10^3/uL: % of subjects,"human, in vivo",(0.4) %
same,Platelet Count: PCS High >500 × 10^3/uL: number of subjects,"human, in vivo",16
same,Platelet Count: PCS Low <100 × 10^3/uL,"human, in vivo",19 (0.5%) n(%)
same,Platelet Count: PCS Low <100 × 10^3/uL: % of subjects,"human, in vivo",(0.5) %
same,Platelet Count: PCS Low <100 × 10^3/uL: number of subjects,"human, in vivo",19
same,Risk Ratio (95% CI): ALP >2x ULN (AE table),"human, in vivo",0.600 (0.335 to 1.075) 2
same,Risk Ratio (95% CI): ALP > ULN (AE table),"human, in vivo",0.624 (0.545 to 0.714) 2
same,Risk Ratio (95% CI): Blood uric acid increased (AE table),"human, in vivo",1.154 (0.753 to 1.768) −1
same,Risk Ratio (95% CI): Gout (AE table),"human, in vivo",1.347 (1.075 to 1.687) −2
same,Risk Ratio (95% CI): Hepatomegaly (AE table),"human, in vivo",0.304 (0.131 to 0.709) 4
same,Risk Ratio (95% CI): Hyperuricemia (AE table),"human, in vivo",1.737 (0.990 to 3.050) −3
same,Risk Ratio (95% CI): Spleen disorders (AE table),"human, in vivo",0.353 (0.139 to 0.894) 4
same,Risk Ratio (95% CI): Splenomegaly (AE table),"human, in vivo",0.400 (0.126 to 1.275) 3
same,WBC Differential (Lymphocytes): PCS High >45%: % of subjects,"human, in vivo",(7.4) %
same,WBC Differential (Lymphocytes): PCS High >45%: number of subjects,"human, in vivo",301
same,WBC Differential (Lymphocytes): PCS Low <30%: % of subjects,"human, in vivo",(75.0) %
same,WBC Differential (Lymphocytes): PCS Low <30%: number of subjects,"human, in vivo",3067
same,WBC Differential (Monocytes): PCS High >6%,"human, in vivo",3101 (78.0%) n(%)
